Test results: patent US20250163056A1, “NONMUSCLE MYOSIN II INHIBITORS” (The University of Florida Research Foundation, Inc., priority 2018, published 2025)
In brackets after ≈: the same amount, converted by molar mass.

Columns and labels:
fear memory = test: Auditory fear memory after systemic NMII inhibition; assay type: in vivo; conditions: IP administered
Excerpt: FIG. 3(A,B,C,D): Systemic NMII inhibition selectively targets the storage of (A) a METH-associated memory, (B) having no effect on an auditory fear memory. Similarly, spine density associated with a METH-associated memory (C), but not a fear memory (D), is reduced.
(§1) The potential for systemic NMII inhibition to selectively target METH-associated memories in the way that intra-AMY administration does was also investigated. […] IP administered Blebbistatin also disrupts reconsolidation of memories for cocaine, nicotine and mephedrone, a result with additional potential therapeutic relevance in treating relapse^75-76. In addition, the BLC spine density increase that accompanies a METH-associated memory is reversed by Blebbistatin (FIG. 3C), without altering the spine density increase associated with a fear memory (FIG. 3D)^65, 74.

[1] = Solubility (quoted in the Table 2 note); assay type: physicochemical
METH seeking = test: Context-induced reinstatement of METH seeking (animal model of relapse); assay type: in vivo; conditions: single intra-BLC administration
Male Sprague-Dawley rats = test: Cardiac safety assay 2: in vivo echocardiography with IV drug infusion; set-up: species or system rat
Excerpt: The first (results shown in Table 2) assesses the effects of our compounds on the contractility of cardiomyocytes. As the cardiac Ki increases, the contractility effects dramatically decrease. However, unlike in the adult heart, the hiPS cardiomyocytes used in this assay express NMII, which likely accounts for the residual contractility effects seen at the highest dose tested. For that reason, we moved to in vivo echocardiograms, which assess contractility in live animals (FIG. 7). […] Accordingly, the compounds of the invention and compounds used for practice of methods of the invention can produce less cardiac toxicity than does blebbistatin.
Male Sprague-Dawley rats are acclimated for approximately 1 week prior to use. Rats are lightly anesthetized using isoflurane and an intravenous catheter is placed for dosing purposes. Baseline 2-D echocardiograms are collected (standard SAX B-mode and M-mode at the level of the papillary muscle). Each rat receives a total of 3 IV treatments. Vehicle (10% DMSO, 10% Tween 80 and 80% water) is first administered, followed 10 minutes later by two subsequent infusions, separated by 10 minutes. Infusions of the positive control, Blebbistatin, are delivered at 0.5 mg/kg IV. […] Measurements including fractional shortening, ejection fraction, heart rate and cardiac output are calculated.

various myosin IIs = conditions: reported in the literature; read-out: biochemical IC50 values in various myosin IIs; cited from earlier work
Rabbit skeletal myosin = test: Skeletal muscle myosin II actin-activated ATPase assay; assay type: biochemical; conditions: 20 nM skeletal muscle myosin II; read-out: SKMMII KI
How it was run: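 NADH-coupled (PK/LDH) actin-activated ATPase at 25 °C with 20 nM rabbit skeletal myosin II, 10 μM F-actin, 1 mM ATP, 1 mM PEP, 220 μM NADH in MOPS pH 7.0, MgCl2, EGTA, BSA, DTT, 0.5% DMSO. NADH fluorescence followed 30 min; inhibitory constants from 16-point triplicate curves (top 50 uM), quadratic one-to-one fit.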

METH-associated memory = test: METH-associated memory, conditioned place preference (CPP) assay; assay type: in vivo, mice and rats; conditions: single intra-BLC or IP administration (IP 10 mg/kg)
Excerpt: In 2013, we published the finding that depolymerization of actin in the AMY disrupts the storage of METH-associated memories in a selective, retrieval-independent manner^65. Because of the limited clinical potential of actin depolymerizing agents, we turned to NMII, a molecular motor we previously found to be a key regulator of memory, synaptic plasticity (long-term potentiation [LTP]) and actin polymerization in dendritic spines^59 63. Through a series of experiments in a recently published studies, we detailed NMII's potential as a therapeutic target for SUD relapse^52,74-76.
as §1

- solubility [1]: 9.3 µM (≈ 2.72 µg/mL)
- Ki (Rabbit skeletal myosin): 360 nM
Compound: Cc1ccc2c(c1)C(=O)[C@]1(O)CCN(c3ccccc3)C1=N2 [Blebbistatin, reference compound]
- effect on a fear memory (fear memory): no similarly immediate effect on a fear memory
- context-induced reinstatement of METH seeking (METH seeking): prevents context-induced reinstatement of METH seeking
- contractility effects in in vivo echocardiograms (Male Sprague-Dawley rats): substantial contractility effects
- IC50 (various myosin IIs): 1800 to 9000 nM
- METH-associated memory (METH-associated memory; listed as Blebb): disrupt a METH-associated memory
- METH-associated memory (METH-associated memory; listed as blebbistatin): disrupted
